Target: CDK2 (UniProt P24941)
Assay: Enzyme Assay

SMILES | IC50 [µM]
FC(F)(F)COc1cncc(Nc2ccccc2)n1 | 17
Clc1cncc(NC(c2ccccc2)c2ccccc2)n1 | 23
Clc1cncc(N(Cc2ccccc2)C2CCCCC2)n1 | 64
Clc1cncc(N2CCN(c3ccccc3)CC2)n1 | 102
NS(=O)(=O)CCNc1cncc(Cl)n1 | 60
Clc1cncc(NCc2cc(Oc3cncc(Cl)n3)no2)n1 | 40
CC(C)(C)c1cc(N)n(-c2cncc(Cl)n2)n1 | 147
Clc1cncc(NC2CCCCC2)n1 | 27
NCCCN(c1cncc(Cl)n1)C1CCCCC1 | 4
Clc1cncc(NCCNc2cncc(Cl)n2)n1 | 43
O=c1[nH]c2ccccc2n1-c1cncc(Cl)n1 | 10
CC(C)c1nccn1-c1cncc(Nc2ccccc2)n1 | 12
Clc1cncc(NC[C@H]2CCCN2)n1 | 5
OCCN(c1cncc(Cl)n1)C1CCCCC1 | 54
CCOC(=O)c1ccc(CNc2cncc(Cl)n2)o1 | 36
c1cn(-c2cncc(-n3ccnc3)n2)cn1 | 105
Clc1cncc(NC2CCCC2)n1 | 52
O[C@@H]1CCCC[C@H]1CN(c1cncc(Cl)n1)C1CCCCC1 | 12
c1ccc(Nc2cncc(-n3ccnc3)n2)cc1 | 5.5
CC(C)CNc1cncc(Cl)n1 | 105
Clc1cncc(N2CCc3ccccc3C2)n1 | 98
Cc1cc2cc(CNc3cncc(Cl)n3)ccc2[nH]1 | 14

Second part, the compound after the results:

IC50 [µM] | SMILES
17 | Clc1cncc(Nc2ccccn2)n1
3 | CSc1cncc(Nc2ccccc2)n1
9 | Clc1cncc(Nc2ccccc2)n1
6 | Oc1cccc(Nc2cncc(Cl)n2)c1
35 | Clc1cncc(-n2cnc3ccccc32)n1
68 | O=C(O)c1ccc(Nc2cncc(Cl)n2)nc1
15 | CC(=O)Nc1ccc(Nc2cncc(Cl)n2)cc1
9 | NC(=O)c1sccc1Nc1cncc(Cl)n1
16 | Fc1ccc(Nc2cncc(Cl)n2)cc1
32 | Clc1cncc(NCc2ccc(Cl)s2)n1
7 | NS(=O)(=O)c1cccc(Nc2cncc(Cl)n2)c1
49 | Cc1cc(Nc2cncc(Cl)n2)[nH]n1
24 | Oc1ccc(Nc2cncc(Cl)n2)cc1
73 | Clc1cncc(NCCc2c[nH]cn2)n1
8 | Clc1ccc(Nc2cncc(Cl)n2)nc1
27 | Clc1cncc(Nc2cccnc2)n1
82 | Clc1cncc(-n2cccn2)n1

— the Kinase Knowledgebase extract (Sharma et al. 2016)
